Measured values from ChEMBL document CHEMBL5346971, “Discovery of the First Irreversible HDAC6 Isoform Selective Inhibitor with Potent Anti-Multiple Myeloma Activity” (J Med Chem, 2023).
Activity calls are given as the source filed them. The calls are words filed in the database; no cut-off is given here.

Columns and labels:
[1] = molecular target: T1, Class 1 histone deacetylase (Homo sapiens) (UniProt Q13547+O15379+Q92769+Q9BY41); assay: Irreversible inhibition of class 1 HDAC in human A549 cells assessed as acetyl histone H3 level at 0.4 uM incubated for 5 hrs followed by drug wash-out for 6 hrs by western blot analysis relative to control; type: cell-based
Histone deacetylase 7 = molecular target: T2, Histone deacetylase 7 (Homo sapiens, UniProt Q8WUI4); assay: (§1) Inhibition of N-terminal GST-tagged human HDAC7 (518 to end residues) expressed in baculovirus-infected Sf9 cells using Boc-Lys(trifluoroacety1)-AMC as substrate preincubated with enzyme for 1 hr followed by substrate addition and measured after 30 mins by fluorescence based analysis
T2 sequence (Q8WUI4 whole entry): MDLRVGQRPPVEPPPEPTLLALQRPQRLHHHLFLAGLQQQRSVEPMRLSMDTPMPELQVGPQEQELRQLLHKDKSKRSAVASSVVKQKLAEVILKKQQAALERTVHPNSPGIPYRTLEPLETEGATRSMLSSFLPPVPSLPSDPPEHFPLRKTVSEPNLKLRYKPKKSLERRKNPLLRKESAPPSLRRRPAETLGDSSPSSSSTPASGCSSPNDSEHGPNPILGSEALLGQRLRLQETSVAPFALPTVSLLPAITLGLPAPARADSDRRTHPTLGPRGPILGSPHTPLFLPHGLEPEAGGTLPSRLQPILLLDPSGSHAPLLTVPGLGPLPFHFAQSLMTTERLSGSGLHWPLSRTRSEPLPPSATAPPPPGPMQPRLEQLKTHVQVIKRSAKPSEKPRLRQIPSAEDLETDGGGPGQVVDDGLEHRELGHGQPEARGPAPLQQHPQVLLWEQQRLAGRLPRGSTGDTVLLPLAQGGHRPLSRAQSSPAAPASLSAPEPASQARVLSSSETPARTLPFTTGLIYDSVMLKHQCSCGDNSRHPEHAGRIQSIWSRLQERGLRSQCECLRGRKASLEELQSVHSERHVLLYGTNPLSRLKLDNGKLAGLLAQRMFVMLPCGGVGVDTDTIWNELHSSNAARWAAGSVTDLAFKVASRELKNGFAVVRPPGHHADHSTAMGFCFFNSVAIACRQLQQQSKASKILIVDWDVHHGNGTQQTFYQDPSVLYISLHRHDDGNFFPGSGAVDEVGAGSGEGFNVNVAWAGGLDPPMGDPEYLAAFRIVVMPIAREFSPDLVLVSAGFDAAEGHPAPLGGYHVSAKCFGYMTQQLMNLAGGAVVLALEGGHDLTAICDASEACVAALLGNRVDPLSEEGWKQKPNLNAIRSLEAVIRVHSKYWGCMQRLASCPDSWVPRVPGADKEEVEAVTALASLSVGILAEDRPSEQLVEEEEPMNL

Histone deacetylase 4 = Histone deacetylase 4 (Homo sapiens, UniProt P56524); assay: as §1, with “GST-tagged/C-terminal His-tagged” for “GST-tagged”, “HDAC4 (627” for “HDAC7 (518”, “1084” for “end”
RPMI-8226 [2] = assay: Induction of apoptosis in human RPMI-8226 cells assessed as proportion of viable cells at 0.1 uM incubated for 24 hrs by AnnexinV-FITC/PI staining based flow cytometry (reference value: 84.71%); type: functional, cell-based
MM1.S = assay: Antiproliferative activity against human MM1.S cells assessed as inhibition of cell proliferation incubated for 48 hrs by CCK8 assay; type: functional, cell-based
[3] = molecular target: T3, Protein deacetylase HDAC6 (Homo sapiens) (UniProt Q9UBN7); assay: Irreversible inhibition of HDAC6 in human A549 cells assessed as acetyl alpha-tubulin level at 0.4 uM incubated for 5 hrs followed by drug wash-out for 6 hrs by western blot analysis relative to control; type: cell-based
T3 sequence (whole entry): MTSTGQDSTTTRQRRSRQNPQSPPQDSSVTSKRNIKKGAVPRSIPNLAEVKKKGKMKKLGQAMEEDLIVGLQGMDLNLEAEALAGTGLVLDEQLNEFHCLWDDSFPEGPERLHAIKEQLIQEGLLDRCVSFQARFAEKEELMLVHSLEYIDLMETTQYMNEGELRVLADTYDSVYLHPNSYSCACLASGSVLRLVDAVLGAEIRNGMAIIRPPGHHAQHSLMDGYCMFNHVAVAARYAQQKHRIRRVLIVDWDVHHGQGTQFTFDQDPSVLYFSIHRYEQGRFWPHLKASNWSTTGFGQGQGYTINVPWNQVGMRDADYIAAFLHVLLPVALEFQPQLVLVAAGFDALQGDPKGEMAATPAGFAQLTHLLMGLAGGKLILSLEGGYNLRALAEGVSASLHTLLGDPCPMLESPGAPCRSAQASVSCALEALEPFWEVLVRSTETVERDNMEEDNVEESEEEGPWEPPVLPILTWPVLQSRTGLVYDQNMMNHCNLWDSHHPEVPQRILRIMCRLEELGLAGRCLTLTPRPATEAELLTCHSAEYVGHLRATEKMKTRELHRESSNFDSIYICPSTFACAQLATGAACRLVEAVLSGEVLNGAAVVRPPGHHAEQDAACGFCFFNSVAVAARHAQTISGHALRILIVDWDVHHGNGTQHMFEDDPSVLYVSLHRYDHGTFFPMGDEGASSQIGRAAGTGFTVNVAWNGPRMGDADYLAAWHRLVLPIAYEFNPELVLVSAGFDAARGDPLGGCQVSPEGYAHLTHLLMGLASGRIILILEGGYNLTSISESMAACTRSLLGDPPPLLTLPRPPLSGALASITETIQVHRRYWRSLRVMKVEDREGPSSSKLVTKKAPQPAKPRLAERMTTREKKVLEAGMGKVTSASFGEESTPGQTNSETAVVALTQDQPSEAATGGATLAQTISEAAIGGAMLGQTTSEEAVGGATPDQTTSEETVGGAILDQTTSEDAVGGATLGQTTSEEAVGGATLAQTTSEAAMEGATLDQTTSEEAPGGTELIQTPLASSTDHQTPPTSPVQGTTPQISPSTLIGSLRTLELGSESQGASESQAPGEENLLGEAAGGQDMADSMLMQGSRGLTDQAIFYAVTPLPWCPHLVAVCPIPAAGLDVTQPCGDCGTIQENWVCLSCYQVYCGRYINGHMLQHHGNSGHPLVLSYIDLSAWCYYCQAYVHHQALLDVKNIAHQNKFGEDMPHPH

[4] = molecular target: T1, Class 1 histone deacetylase (Homo sapiens); assay: Irreversible inhibition of class 1 HDAC in human A549 cells assessed as acetyl histone H3 level at 0.4 uM incubated for 5 hrs followed by drug wash-out for 1 hr by western blot analysis relative to control; type: cell-based
[5] = Cytotoxicity against human L02 cells assessed as inhibition of cell proliferation incubated for 48 hrs by CCK8 assay; type: toxicity, cell-based
RPMI-8226 [6] = assay: Induction of apoptosis in human RPMI-8226 cells incubated for 24 hrs by AnnexinV-FITC/PI staining based flow cytometry; type: functional, cell-based; conditions: dose 0.1-0.5 µM
U-266 = assay: Antiproliferative activity against human U-266 cells assessed as inhibition of cell proliferation incubated for 48 hrs by CCK8 assay; type: functional, cell-based; conditions: U-266, 48 h
[7] = Half-life in rat liver microsomes in presence of NADPH by LC-MS/MS analysis; type: ADME, Microsome

T1 sequence (O15379 whole entry, looked up): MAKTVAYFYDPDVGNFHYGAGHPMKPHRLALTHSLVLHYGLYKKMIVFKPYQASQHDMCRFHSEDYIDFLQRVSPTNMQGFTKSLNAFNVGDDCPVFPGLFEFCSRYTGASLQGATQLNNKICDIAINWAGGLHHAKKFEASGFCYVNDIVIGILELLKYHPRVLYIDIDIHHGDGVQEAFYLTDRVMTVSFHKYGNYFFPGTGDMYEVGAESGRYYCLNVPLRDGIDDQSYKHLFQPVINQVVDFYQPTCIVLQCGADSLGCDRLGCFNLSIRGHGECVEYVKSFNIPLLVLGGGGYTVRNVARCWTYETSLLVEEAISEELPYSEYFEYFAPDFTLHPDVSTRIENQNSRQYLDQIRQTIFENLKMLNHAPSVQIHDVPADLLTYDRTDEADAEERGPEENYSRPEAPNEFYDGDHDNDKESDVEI
T1 sequence (Q13547 whole entry, looked up): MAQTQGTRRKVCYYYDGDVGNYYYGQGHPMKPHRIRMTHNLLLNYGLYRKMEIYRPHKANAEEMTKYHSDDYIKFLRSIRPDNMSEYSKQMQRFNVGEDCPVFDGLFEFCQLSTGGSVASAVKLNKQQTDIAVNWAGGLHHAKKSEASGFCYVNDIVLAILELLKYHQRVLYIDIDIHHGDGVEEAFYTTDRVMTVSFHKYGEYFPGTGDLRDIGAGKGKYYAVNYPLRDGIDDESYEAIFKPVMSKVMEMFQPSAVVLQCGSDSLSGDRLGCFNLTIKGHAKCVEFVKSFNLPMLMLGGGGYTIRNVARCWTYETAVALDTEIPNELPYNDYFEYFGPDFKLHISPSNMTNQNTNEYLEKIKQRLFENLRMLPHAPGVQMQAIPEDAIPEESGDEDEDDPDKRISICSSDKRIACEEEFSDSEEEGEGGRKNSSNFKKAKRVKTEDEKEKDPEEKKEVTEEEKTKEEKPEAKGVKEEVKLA
T1 sequence (Q92769 whole entry, looked up): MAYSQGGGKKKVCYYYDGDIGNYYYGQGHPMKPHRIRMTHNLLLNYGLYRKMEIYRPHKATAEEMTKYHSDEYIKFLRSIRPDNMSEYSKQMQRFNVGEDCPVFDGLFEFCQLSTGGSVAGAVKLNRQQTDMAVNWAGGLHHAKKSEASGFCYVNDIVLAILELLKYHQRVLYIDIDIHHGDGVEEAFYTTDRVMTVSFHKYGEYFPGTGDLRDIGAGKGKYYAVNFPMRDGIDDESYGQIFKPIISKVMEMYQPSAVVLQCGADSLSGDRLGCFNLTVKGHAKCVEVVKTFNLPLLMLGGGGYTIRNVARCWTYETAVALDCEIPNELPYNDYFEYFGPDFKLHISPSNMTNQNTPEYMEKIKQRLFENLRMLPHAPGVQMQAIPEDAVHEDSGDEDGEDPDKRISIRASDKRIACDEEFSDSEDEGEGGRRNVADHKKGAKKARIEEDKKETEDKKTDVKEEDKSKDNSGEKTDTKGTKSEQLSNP
T1 sequence (Q9BY41 whole entry, looked up): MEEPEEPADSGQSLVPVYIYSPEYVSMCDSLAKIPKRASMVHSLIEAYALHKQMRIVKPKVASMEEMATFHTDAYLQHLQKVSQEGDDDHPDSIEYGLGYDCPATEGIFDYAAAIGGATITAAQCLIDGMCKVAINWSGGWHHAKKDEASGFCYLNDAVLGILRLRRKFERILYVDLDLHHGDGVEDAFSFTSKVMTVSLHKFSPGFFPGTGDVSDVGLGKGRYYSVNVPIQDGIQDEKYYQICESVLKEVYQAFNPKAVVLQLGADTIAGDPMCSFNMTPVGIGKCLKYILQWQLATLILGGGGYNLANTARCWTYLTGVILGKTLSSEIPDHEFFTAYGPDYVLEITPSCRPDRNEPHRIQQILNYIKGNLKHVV
Sequence of Histone deacetylase 4 (P56524 whole entry): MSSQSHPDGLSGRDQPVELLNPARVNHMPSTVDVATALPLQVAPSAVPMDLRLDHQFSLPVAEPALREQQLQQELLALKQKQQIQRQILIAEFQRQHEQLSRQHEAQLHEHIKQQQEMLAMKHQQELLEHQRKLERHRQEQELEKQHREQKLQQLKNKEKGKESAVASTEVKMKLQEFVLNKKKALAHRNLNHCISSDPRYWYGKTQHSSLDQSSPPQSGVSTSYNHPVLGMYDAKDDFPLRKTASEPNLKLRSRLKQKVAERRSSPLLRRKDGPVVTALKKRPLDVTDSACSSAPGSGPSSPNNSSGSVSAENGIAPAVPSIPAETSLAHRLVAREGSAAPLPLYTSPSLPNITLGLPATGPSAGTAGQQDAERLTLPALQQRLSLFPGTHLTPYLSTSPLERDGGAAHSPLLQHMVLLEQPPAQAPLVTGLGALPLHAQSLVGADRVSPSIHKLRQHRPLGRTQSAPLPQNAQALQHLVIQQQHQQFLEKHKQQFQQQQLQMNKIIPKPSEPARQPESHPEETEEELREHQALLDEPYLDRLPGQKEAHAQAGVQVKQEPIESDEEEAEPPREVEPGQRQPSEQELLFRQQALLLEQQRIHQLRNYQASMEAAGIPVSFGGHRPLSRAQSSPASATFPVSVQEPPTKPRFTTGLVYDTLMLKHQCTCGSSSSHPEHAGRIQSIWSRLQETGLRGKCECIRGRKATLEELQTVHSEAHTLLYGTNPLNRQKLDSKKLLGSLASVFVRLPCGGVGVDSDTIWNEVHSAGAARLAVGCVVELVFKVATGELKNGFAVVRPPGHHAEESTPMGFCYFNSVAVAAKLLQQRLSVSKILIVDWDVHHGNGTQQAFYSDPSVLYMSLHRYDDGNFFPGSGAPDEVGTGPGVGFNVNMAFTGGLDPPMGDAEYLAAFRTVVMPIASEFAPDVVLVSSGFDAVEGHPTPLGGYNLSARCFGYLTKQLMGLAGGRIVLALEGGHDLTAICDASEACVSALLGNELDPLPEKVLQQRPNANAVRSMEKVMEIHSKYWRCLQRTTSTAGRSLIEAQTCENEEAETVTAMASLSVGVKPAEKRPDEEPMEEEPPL

fold change (FC) [1]: 1.1 | IC50 (Histone deacetylase 7): > 40 µM | IC50 (Histone deacetylase 4): > 40 µM | IC50 (MM1.S): 0.42 µM | fold change (FC) [3]: 5.1 | fold change (FC) [4]: 1.2 | half-life [7]: 9.2 min
SMILES: O=C(NO)c1ccc(COc2no[n+]([O-])c2S(=O)(=O)c2ccccc2)cc1
Activity (RPMI-8226 [2]): Active | IC50 at 48 h [5]: 8.2 µM | Activity (RPMI-8226 [6]): Dose-Dependent Effect | IC50 (U-266): 0.7 µM
